# Data as given in patent US20240287005A1, “ISOXAZOLINE PESTICIDES” (Elanco Tiergesundheit AG, priority 2021, published 2024).
# Test system: Ctenocephalides felis
# Experiment: In vitro evaluation of contact activity against adult cat fleas
# Settings: adult fleas in coated glass vial, after 48 h
# Protocol: In vitro contact tests with […] are conducted with adult males and females of Ctenocephalides felis. For the coating of the test vials, the test substance is dissolved and diluted in acetone p.a. to the desired concentration. The solution is then homogeneously applied to the inner walls and base of a glass vial by turning and rocking on an orbital shaker until complete evaporation of the solvent. For example, with 900 ppm solution of test substance an area-based dose of 5 μg/cm^2 is achieved.
# After the solvent is completely evaporated, approximately 10 adult fleas are applied to each coated test vial, which is then sealed with a perforated plastic lid and incubated in a horizontal position in the dark at room temperature and ambient humidity. Insecticidal activity is determined after 48 h. Fleas which remain motionless on the base of the test vial or move uncoordinated without occasionally jumping or walking straight are considered dead or moribund, respectively. An insecticidal activity of 100% means all fleas were dead or moribund. An insecticidal activity of 0% means none of the fleas was affected. From a dose response curve the respective EC50 was calculated (4-parameter logistic curve fitting).
compound,measurement,value
"Cc1cc(C2=NOC(c3cc(C(F)(F)F)cc(C(F)(F)F)c3F)(C(F)(F)F)C2)ccc1C(=O)NCC(=O)NCC(F)(F)F (single isomer, unassigned) [Example 3.1]",EC50 insecticidal activity (fleas dead or moribund),< 0.05 μg/cm^2
